Results taken from PubChem BioAssay AID463206 (Broad Institute, 2010).
Calls of active or inactive are those of the source.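 How the source made its calls: active means caspase luminescence falls with dose and the half-maximal concentration AC50 from the fitted curve is at or below a set limit; inconclusive means flat fit at 30 to 70% signal loss, or invalid fit; inactive means AC50 above the limit, or signal rises instead.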

system: INS-1E cytokine-induced caspase-3/7, Caspase-Glo luminescence, 48 h; test: inhibitors of cytokine-induced caspase-3/7 activity, dose response, orthogonal assay for beta-cell apoptosis protection project, INS-1E rat cells, luminescence (AID 463206)

Row | SMILES | AC50
1 | C[C@H]1CCC/C=C/[C@@H]2C[C@H](O)C[C@H]2[C@H](O)/C=C/C(=O)O1 | > 26 µM (inactive)
2 | CCOc1cc(/C=C2\CCC/C(=C\c3cc(Cl)c(O)c(OCC)c3)C2=O)cc(Cl)c1O | 9.51 µM
3 | N#CC(c1cccc(Cl)c1)c1ccc2c(C(F)(F)F)cc(C(F)(F)F)nc2n1 (stereo not drawn) | > 26 µM (inactive)
4 | COc1ccccc1/C=N\Nc1cc(C)nc(-n2nc(C)cc2C)n1 | > 26 µM (inactive)
5 | O=C(CNC(=O)c1ccccc1O)N/N=C/c1cc(Br)ccc1OC(=O)/C=C/c1ccco1 | > 26 µM (inactive)
6 | CC1CCC(C(C)C)C(OC(=O)C[n+]2cc(-c3ccc(Cl)cc3)n3c2CCCCC3)C1 (stereo not drawn) | > 26 µM (inactive)
7 | NNC(=S)Nc1ccc(OC(F)(F)F)cc1 | > 26 µM (inactive)
8 | O=Nc1c(O)c2ccccc2c2ccccc12 | > 26 µM (inactive)
9 | O=C(N/N=C/c1ccc([N+](=O)[O-])o1)c1ccc(O)cc1 | > 26 µM (inactive)
10 | CCN(CC)S(=O)(=O)c1cc(OC)ccc1N=Nc1ccc(O)c2ncccc12 | > 26 µM (inactive)
11 | COc1ccc(C(=O)Nc2ccccc2C(=O)N/N=C/c2ccccn2)cc1OC | > 26 µM (inactive)
12 | Cc1cccc(/C=N/NC(=O)c2c(-c3ccccc3)noc2C)c1O | > 26 µM (inactive)
13 | O=C(/C(N=Nc1cccc([N+](=O)[O-])c1)=C(/O)c1ccc(Br)cc1)C(F)(F)F | > 26 µM (inactive)
14 | CCCC(=O)NC(c1ccc(Cl)cc1)c1ccc2cccnc2c1O (stereo not drawn) | > 26 µM (inactive)
15 | O=C(CCC(=O)Nc1ccc(Cl)cc1Cl)N/N=C/c1ccc([N+](=O)[O-])o1 | > 26 µM (inactive)
16 | Cc1cc(C)n(Cc2ccc(NC(=O)c3ccc(COc4ccccc4Br)cc3)cc2)n1 | > 26 µM (inactive)
17 | COc1ccc(C2C(C#N)=C(N)Oc3c2ccc2cccnc32)cc1OC (stereo not drawn) | > 12 µM (inactive)
18 | CC1=C/C(=N\OS(=O)(=O)c2ccccc2)C(C)=CC1=O | > 26 µM (inactive)
19 | O=C(NCCc1cn2ccccc2n1)c1cc(COc2ccc3ncccc3c2)on1 | > 26 µM (inactive)
20 | COc1ccc(CNCCC(c2ccc(OC(C)C)cc2)C(C)C)cc1OC (stereo not drawn) | > 26 µM (inactive)
21 | O=c1cnnc(N/N=C/c2ccccn2)[nH]1 | > 26 µM (inactive)
22 | O=C(C1=C[C@@H](c2ccc(C(F)(F)F)cc2)C[C@@H](OCCCCO)O1)N1CCN(Cc2ccccc2)CC1 | > 26 µM (inactive)
23 | CN(c1ccccc1)S(=O)(=O)c1ccc(NC(=O)c2nc(S(C)(=O)=O)ncc2Cl)cc1 | > 26 µM (inactive)

Row | SMILES | AC50
24 | CC(=O)Nc1ccc(Nc2c3ccccc3nc3ccccc23)cc1 | 8.76 µM
25 | Cc1ccc(NS(=O)(=O)c2ccc(Cl)c(NC(=S)NC(=O)C3CCCCC3)c2)cc1Cl | > 26 µM (inactive)
26 | Oc1ccc(Br)cc1CNc1cccc2cccnc12 | > 26 µM (inactive)
27 | CN1/C(=C\C=C2/SC(=S)NC2=O)C(C)(C)c2ccccc21 | > 26 µM (inactive)
28 | Cc1cc(C)n(-c2nc(Nc3ccccc3C(F)(F)F)nc(-n3nc(C)cc3C)n2)n1 | > 26 µM (inactive)
29 | Cc1onc(-c2ccccc2)c1C(=O)NC(=S)NNC(=O)c1ccc(O)cc1O | > 26 µM (inactive)
30 | C=CCN(CC=C)CC(O)Cn1c2ccccc2c2ccccc21 (stereo not drawn) | > 26 µM (inactive)
31 | Cc1ccc2c(c1)S/C(=C/c1ccc[n+](CCO)c1)N2C | > 26 µM (inactive)
32 | O=C(NCc1ccccc1)C1=C[C@@H](c2csc3ccccc23)C[C@@H](OCc2ccc(CO)cc2)O1 | > 26 µM (inactive)
33 | CCCCNc1c(-c2cccc(-c3ccc(OC)cc3)c2)nc2ccc(C)cn12 | > 26 µM (inactive)
34 | Cc1ccc(/C=N/NC(=O)Cc2ccc(Cl)cc2)c(O)c1 | > 26 µM (inactive)
35 | Cn1cc(CNCc2ccc(OC(F)(F)F)cc2)c(-c2ccc3c(c2)OCCO3)n1 | > 26 µM (inactive)
36 | Brc1ccc(N/N=C(/N=Nc2nn[nH]n2)c2ccccc2)cc1 | > 26 µM (inactive)
37 | CC(C(c1cccs1)c1c(N)n(C)c(=O)n(C)c1=O)[N+](=O)[O-] (stereo not drawn) | > 26 µM (inactive)
38 | CN(Cc1ccccc1)C(=O)c1nc2ccccn2c1CN1CCCC1c1nccs1 (stereo not drawn) | > 26 µM (inactive)
39 | COc1cccc(/C=N/Nc2nc3ccccc3[nH]2)c1O | > 26 µM (inactive)
40 | CC(C)(C)c1cc(C(=O)N/N=C/c2ccc([N+](=O)[O-])s2)n[nH]1 | > 26 µM (inactive)
41 | O=C(N/N=C/c1sc2ccccc2c1O)c1ccccc1 | > 26 µM (inactive)
42 | CN1/C(=C\C(=O)C[n+]2ccc(C(=O)c3ccccc3)cc2)C(C)(C)c2ccccc21 | > 26 µM (inactive)
43 | CN1CCN(c2ccc(CNS(=O)(=O)Cc3cccc(C(F)(F)F)c3)cc2)CC1 | > 26 µM (inactive)
44 | COc1ccc(-c2c[n+](CC(=O)OC3CC(C)CCC3C(C)C)c3n2CCC3)cc1 (stereo not drawn) | > 26 µM (inactive)
45 | Cc1ccccc1OC1C(=O)N(Cc2ccc3c(c2)OCO3)C1c1sccc1C (stereo not drawn) | > 26 µM (inactive)
46 | NS(=O)(=O)c1ccc(N=Nc2ccc(O)c3ncccc23)cc1 | > 26 µM (inactive)

Row | SMILES | AC50
47 | CCCCC[n+]1cccc2c3ccccc3ccc21 | > 26 µM (inactive)
48 | Cc1sc2ncnc(NCC(O)c3ccccc3)c2c1C (stereo not drawn) | 23.5 µM
49 | O=C1CSC(c2cccnc2)N1CC1CC1 (stereo not drawn) | > 26 µM (inactive)
50 | C/C(=N\NC(=O)COc1ccccc1-c1ccccc1)c1ccccn1 | > 26 µM (inactive)
51 | CN(C)CCCn1cnc2c(c1=N)C(c1ccccc1)c1ccc3ccccc3c1O2 (stereo not drawn) | 9.99 µM
52 | Cc1cc([N+](=O)[O-])nn1Cc1ccc(C(=O)N/N=C/c2ccc(O)cc2O)cc1 | > 26 µM (inactive)
53 | Cc1ccccc1N=Nc1ccc(O)c2ncccc12 | > 26 µM (inactive)
54 | Cc1ccc(Nc2c(-c3ccccn3)nc3cc(C)ccn23)cc1 | > 26 µM (inactive)
55 | Fc1cc(F)c2nc(Nc3nc4c(F)cccc4s3)sc2c1 | > 26 µM (inactive)
56 | COc1ccc(Br)cc1CN1CCN(Cc2c[nH]c3ccccc23)CC1 | > 26 µM (inactive)
57 | CCN(CC)c1ccc(N=Cc2ccccc2[N+](=O)[O-])cc1 | > 26 µM (inactive)
58 | CCC(CO)Oc1cc(NCc2ccc(C)c(C)c2)c2ncn(C(C)C)c2c1 (stereo not drawn) | > 26 µM (inactive)
59 | COc1ccc(CNc2ncnc3sccc23)cc1 | > 26 µM (inactive)
60 | O=C(Nc1ccc(C(F)(F)F)cc1)C1CCN(S(=O)(=O)c2ccc(N3CCCC3=O)cc2)CC1 | > 26 µM (inactive)
61 | Cc1sc2cc3c(c(C(=O)c4ccccc4)[n+]2c1C)-c1cccc2cccc-3c12 | > 26 µM (inactive)
62 | NC(=S)N/N=C/c1c(O)c(Br)cc2oc3c(c12)CCCC3 | > 26 µM (inactive)
63 | COc1ccc(/C=C/c2cc(-c3ccc(C)cc3)o[n+]2C)cc1 | > 26 µM (inactive)
64 | CCCCCCCCCCCCCCCC[N+](C)(C)CCN(Cc1ccc(OC)cc1)c1ncccn1 | > 26 µM (inactive)
65 | CCCCCCCCNC(C)C(O)c1ccc(SC(C)C)cc1 (stereo not drawn) | > 26 µM (inactive)
66 | Fc1ccc(Oc2nc(-c3ccccn3)nc3ccccc23)cc1 | > 26 µM (inactive)
67 | Cc1ccc(C(=O)c2c(C)oc3c2C(=O)C(=O)c2ccccc2-3)cc1 | > 26 µM (inactive)
68 | Clc1ccc(-c2[nH]ncc2N=Nc2ccccc2)cc1 | > 26 µM (inactive)
